According to patent publication US6914045B2, “Glycopeptide antibiotics” (Wyeth Holdings Corporation, priority 2001, dated 2005):
Converted amounts (≈) assume the structure as drawn. Read-outs that look alike come from different tables or passages of the source. Numbered stars: 1 amine (or outer) side, 2 acyl side, 3 side chain; on linkers, the order of the positions; unused ones are H or OH. Square brackets hold non-standard residues; d marks the D form. Peptide text beside a SMILES is read from it. X5 = N=C1NCC(C(O)[C@@H](N[*:1])C(=O)[*:2])N1; X4 = N=C1NCC(C(O)[C@H](N[*:1])C(=O)[*:2])N1; Cha = N[C@@H](CC1CCCCC1)C(=O)O; dCha = N[C@H](CC1CCCCC1)C(=O)O

Columns and labels:
Experiment in all cases: in vitro antibacterial evaluation, MIC by broth dilution
Type in all cases: cell-based
[1] = tested on: Streptococcus sp.; details: broth dilution, 18 hours at 35° C.
Procedure: (§1) Methods for in vitro Antibacterial Evaluation (Table 1)
(§2) The minimum inhibitory concentration (MIC), the lowest concentration of the antibiotic which inhibits growth of the test organism, is determined by the broth dilution method using Muller-Hinton II […] (Baltimore Biological Laboratories) following the recommendations of the National Committee for Clinical Laboratory Standards [Methods for dilution antimicrobial susceptibility tests for bacteria that grow aerobically, approved standard M7-A2, National Committee for Clinical Laboratory Standards, Villanova, Pa.].
(§3) An inoculum level of 5×10^5 CFU/mL, and a range of antibiotic concentrations (64-0.06 μg/mL) is used. […] The test organisms include a spectrum of Gram-positive bacteria comprised of Staphylococcus sp., Streptococcus sp. and Enterococcus sp. These organisms include recent clinical isolates that are resistant to methicillin, penicillin and/or vancomycin.

[2] = tested on: Staphylococcus sp.; details: broth dilution, 18 hours at 35° C.
Procedure: as §1, §2, §3

[3] = tested on: Enterococcus sp.; details: broth dilution, 18 hours at 35° C.
Procedure: as §1, §2, §3

[4] = tested on: Escherichia coli; details: 18 hours at 35° C.
Method in brief: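 Broth dilution in Muller-Hinton II medium per NCCLS standard M7-A2, with an inoculum of 5×10^5 CFU/mL and antibiotic tested over 64-0.06 μg/mL. MIC was taken as the lowest concentration inhibiting visible growth.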

Structure (SMILES): N=C1NCC(C(O)[C@@H]2NC(=O)[C@@H](CC3CCCCC3)NC(=O)[C@H](CC3CCCCC3)NC(=O)CNC(=O)[C@H](CO)NC(=O)[C@@H](C(O)C3CNC(=N)N3)NC2=O)N1 (stereo partly drawn) [Example 58, Cyclo[3-cyclohexylalanyl-3-cyclohexylalanyl-3-(2-iminoimidazolidin-4-yl)seryl-3-(2-iminoimidazolidin-4-yl)-serylserylglycyl]] (cyclo([Cha][dCha][X4][X5]SG))
- MIC ([1]; read-out: MIC Streptococcus agalactiae (GC 4564)): 16 µg/mL (≈ 20.2 µM)
- MIC ([1]; read-out: MIC Streptococcus pneumoniae (ATCC 6301)): 8 µg/mL (≈ 10.1 µM)
- MIC ([1]; read-out: MIC Streptococcus pneumoniae (GC 1894)): 8 µg/mL (≈ 10.1 µM)
- MIC ([1]; read-out: MIC Streptococcus pneumoniae (GC 4565)): 16 µg/mL (≈ 20.2 µM)
- MIC ([1]; read-out: MIC Streptococcus pyogenes (GC 4563)): 8 µg/mL (≈ 10.1 µM)
- MIC Streptococcus pneumoniae (ATCC 6301) ([1]; strain ATCC 6301): 8 µg/mL (≈ 10.1 µM)
- MIC Streptococcus pneumoniae (GC 1894) ([1]; strain GC 1894): 8 µg/mL (≈ 10.1 µM)
- MIC Streptococcus pyogenes (GC 4563) ([1]; strain GC 4563): 8 µg/mL (≈ 10.1 µM)
- MIC Streptococcus agalactiae (GC 4564) ([1]; strain GC 4564): 16 µg/mL (≈ 20.2 µM)
- MIC Streptococcus pneumoniae (GC 4565) ([1]; strain GC 4565): 16 µg/mL (≈ 20.2 µM)
- MIC ([2]; Staphylococcus, strain GC 4543, read-out: MIC Staphylococcus aureus-SMITH (GC 4543)): 4 µg/mL (≈ 5.06 µM)
- MIC ([2]; Staphylococcus, strain GC 4547, read-out: MIC Coagulase Negative Staphylococcus (GC 4547)): 4 µg/mL (≈ 5.06 µM)
- MIC ([2]; Staphylococcus, strain GC 4548, read-out: MIC Coagulase Negative Staphylococcus (GC 4548)): 4 µg/mL (≈ 5.06 µM)
- MIC ([2]; Staphylococcus, strain GC 4549, read-out: MIC Coagulase Negative Staphylococcus (GC 4549)): 4 µg/mL (≈ 5.06 µM)
- MIC ([2]; Staphylococcus, strain GC 4551, read-out: MIC Coagulase Negative Staphylococcus (GC 4551)): 8 µg/mL (≈ 10.1 µM)
- MIC ([2]; strain ATCC 29213, read-out: MIC Staphylococcus aureus (ATCC 29213)): 16 µg/mL (≈ 20.2 µM)
- MIC ([2]; strain GC 1131, read-out: MIC Staphylococcus aureus (GC 1131)): 8 µg/mL (≈ 10.1 µM)
- MIC ([2]; strain GC 3051, read-out: MIC Staphylococcus aureus (GC 3051)): 16 µg/mL (≈ 20.2 µM)
- MIC ([2]; strain GC 3053, read-out: MIC Staphylococcus aureus (GC 3053)): 32 µg/mL (≈ 40.5 µM)
- MIC ([2]; strain GC 4541, read-out: MIC Staphylococcus aureus (GC 4541)): 16 µg/mL (≈ 20.2 µM)
- MIC ([2]; strain GC 4542, read-out: MIC Staphylococcus aureus (GC 4542)): 16 µg/mL (≈ 20.2 µM)
- MIC ([2]; strain GC 4544, read-out: MIC Staphylococcus aureus (GC 4544)): 16 µg/mL (≈ 20.2 µM)
- MIC ([2]; strain GC 4545, read-out: MIC Staphylococcus aureus (GC 4545)): 8 µg/mL (≈ 10.1 µM)
- MIC ([2]; strain GC 4546, read-out: MIC Staphylococcus haemolyticus (GC 4546)): 4 µg/mL (≈ 5.06 µM)
- MIC Enterococcus avium (GC 4558) ([3]; Enterococcus avium (GC 4558)): 32 µg/mL (≈ 40.5 µM)
- MIC Enterococcus faecalis (ATCC 29212) ([3]; Enterococcus faecalis (ATCC 29212)): 64 µg/mL (≈ 80.9 µM)
- MIC Enterococcus faecalis (GC 4552) ([3]; Enterococcus faecalis (GC 4552)): 64 µg/mL (≈ 80.9 µM)
- MIC Enterococcus faecalis (GC 4553) ([3]; Enterococcus faecalis (GC 4553)): 32 µg/mL (≈ 40.5 µM)
- MIC Enterococcus faecalis (GC 4554) ([3]; Enterococcus faecalis (GC 4554)): 64 µg/mL (≈ 80.9 µM)
- MIC Enterococcus faecalis (GC 6189) ([3]; Enterococcus faecalis (GC 6189)): 64 µg/mL (≈ 80.9 µM)
- MIC Enterococcus faecium (GC 2243) ([3]; Enterococcus faecium (GC 2243)): 32 µg/mL (≈ 40.5 µM)
- MIC Enterococcus faecium (GC 4556) ([3]; Enterococcus faecium (GC 4556)): 64 µg/mL (≈ 80.9 µM)
- MIC Enterococcus faecium (GC 4557) ([3]; Enterococcus faecium (GC 4557)): 8 µg/mL (≈ 10.1 µM)
- MIC ([3]; read-out: MIC Enterococcus avium (GC 4558)): 32 µg/mL (≈ 40.5 µM)
- MIC ([3]; read-out: MIC Enterococcus faecalis (ATCC 29212)): 64 µg/mL (≈ 80.9 µM)
- MIC ([3]; read-out: MIC Enterococcus faecalis (GC 2242)): 64 µg/mL (≈ 80.9 µM)
- MIC ([3]; read-out: MIC Enterococcus faecalis (GC 2691)): 64 µg/mL (≈ 80.9 µM)
- MIC ([3]; read-out: MIC Enterococcus faecalis (GC 3059)): 64 µg/mL (≈ 80.9 µM)
- MIC ([3]; read-out: MIC Enterococcus faecalis (GC 4552)): 64 µg/mL (≈ 80.9 µM)
- MIC ([3]; read-out: MIC Enterococcus faecalis (GC 4553)): 32 µg/mL (≈ 40.5 µM)
- MIC ([3]; read-out: MIC Enterococcus faecalis (GC 4554)): 64 µg/mL (≈ 80.9 µM)
- MIC ([3]; read-out: MIC Enterococcus faecalis (GC 6189)): 64 µg/mL (≈ 80.9 µM)
- MIC ([3]; read-out: MIC Enterococcus faecium (GC 2243)): 32 µg/mL (≈ 40.5 µM)
- MIC ([3]; read-out: MIC Enterococcus faecium (GC 4556)): 64 µg/mL (≈ 80.9 µM)
- MIC ([3]; read-out: MIC Enterococcus faecium (GC 4557)): 8 µg/mL (≈ 10.1 µM)
- MIC Enterococcus faecalis (GC 2242) ([3]; strain GC 2242): 64 µg/mL (≈ 80.9 µM)
- MIC Enterococcus faecalis (GC 2691) ([3]; strain GC 2691): 64 µg/mL (≈ 80.9 µM)
- MIC Enterococcus faecalis (GC 3059) ([3]; strain GC 3059): 64 µg/mL (≈ 80.9 µM)
- MIC ([4]; Escherichia coli (ATCC 25922), read-out: MIC Escherichia coli (ATCC 25922)): 16 µg/mL (≈ 20.2 µM)
- MIC ([4]; Escherichia coli, read-out: MIC Escherichia coli (GC 4559)): 8 µg/mL (≈ 10.1 µM)
- MIC ([4]; Escherichia coli, read-out: MIC Escherichia coli (GC 4560)): 16 µg/mL (≈ 20.2 µM)
